Structures can show the parent of a compound that is named as a salt.

USP7, sequence (Q93009 whole entry): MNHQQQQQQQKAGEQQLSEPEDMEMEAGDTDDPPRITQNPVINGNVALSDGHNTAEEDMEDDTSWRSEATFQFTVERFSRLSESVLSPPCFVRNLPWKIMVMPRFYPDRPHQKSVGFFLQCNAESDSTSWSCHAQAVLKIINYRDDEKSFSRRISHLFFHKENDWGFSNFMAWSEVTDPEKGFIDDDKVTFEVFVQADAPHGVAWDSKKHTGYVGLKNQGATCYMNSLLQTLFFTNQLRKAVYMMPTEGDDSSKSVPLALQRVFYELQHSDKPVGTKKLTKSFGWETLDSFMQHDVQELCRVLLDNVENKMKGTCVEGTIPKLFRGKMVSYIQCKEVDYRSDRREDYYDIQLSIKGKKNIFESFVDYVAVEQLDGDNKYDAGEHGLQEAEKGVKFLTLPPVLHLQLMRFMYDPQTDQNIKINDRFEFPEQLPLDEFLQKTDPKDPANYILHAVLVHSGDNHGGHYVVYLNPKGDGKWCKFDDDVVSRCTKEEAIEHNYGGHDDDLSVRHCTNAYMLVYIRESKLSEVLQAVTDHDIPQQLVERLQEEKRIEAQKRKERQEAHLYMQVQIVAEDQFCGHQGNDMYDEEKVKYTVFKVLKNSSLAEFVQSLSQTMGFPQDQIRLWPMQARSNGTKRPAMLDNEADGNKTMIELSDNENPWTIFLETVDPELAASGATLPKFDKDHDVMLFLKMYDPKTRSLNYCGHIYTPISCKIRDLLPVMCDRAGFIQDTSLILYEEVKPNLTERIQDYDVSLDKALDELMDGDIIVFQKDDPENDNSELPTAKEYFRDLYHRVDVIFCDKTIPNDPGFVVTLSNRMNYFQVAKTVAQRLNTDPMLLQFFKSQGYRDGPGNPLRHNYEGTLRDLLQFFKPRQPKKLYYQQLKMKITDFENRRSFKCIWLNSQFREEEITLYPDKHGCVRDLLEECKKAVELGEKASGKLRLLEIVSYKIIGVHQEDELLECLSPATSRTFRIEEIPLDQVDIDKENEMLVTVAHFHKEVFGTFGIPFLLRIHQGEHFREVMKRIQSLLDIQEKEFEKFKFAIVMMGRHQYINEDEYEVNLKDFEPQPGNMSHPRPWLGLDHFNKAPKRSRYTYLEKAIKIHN

This assay has as its target USP7 (Homo sapiens, UniProt Q93009). Briefly: biochemical. Also noted: Ub-AMC hydrolysis by recombinant USP7 (20 nM), 30 min pre-incubation, fluorescence read-out. Particulars: read-out: % Inhibition at 50 μM.
As to `CN1CCN(CCCN2c3ccccc3Sc3ccc(C(F)(F)F)cc32)CC1` [Trifluoperazine 2HCl], the inhibition – broadly, the percentage by which the read-out fell short of the control – at 50 µM is < 5%.

For `CCCCc1nc(Cl)c(CO)n1Cc1ccc(-c2ccccc2-c2nnn[nH]2)cc1` [Losartan potassium], the inhibition at 50 µM was < 5%.

On to `CC[C@@]1(O)C(=O)OCc2c1cc1n(c2=O)Cc2cc3ccccc3nc2-1` [Camptothecin], for which the inhibition at 50 µM is < 5%.

Consider `CC/C(=C(\c1ccccc1)c1ccc(OCCN(C)C)cc1)c1ccccc1` [Tamoxifen citrate], for which the inhibition at 50 µM was < 5%.

Turning to `CO[C@@H]1[C@H](OC(=O)/C=C/C=C/C=C/C=C/C(=O)O)CC[C@]2(CO2)[C@H]1[C@@]1(C)O[C@@H]1CC=C(C)C` [Fumagillin], the inhibition at 50 µM was < 5%.

For the compound `C[C@H]1c2cccc(O)c2C(=O)C2=C(O)[C@]3(O)C(=O)C(C(N)=O)=C(O)[C@@H](N(C)C)[C@@H]3[C@@H](O)[C@@H]21` [Doxycycline HCl], the inhibition at 50 µM was < 5%.

For the compound `O=C(O)COC(=O)Cc1ccccc1Nc1c(Cl)cccc1Cl` [Aceclofenac], the inhibition at 50 µM was < 5%.

Take `NS(=O)(=O)Cc1noc2ccccc12` [Zonisamide]: the inhibition at 50 µM was < 5%.

For the compound `COc1ccc(C2CNC(=O)C2)cc1OC1CCCC1` (stereo not drawn) [Rolipram], the inhibition at 50 µM was < 5%.

`CC12CC3CC(C)(C1)CC(N)(C3)C2` [Memantine HCl]: the inhibition at 50 µM was < 5%.

As to `c1cnc(N2CCN(Cc3ccc4c(c3)OCO4)CC2)nc1` [Piribedil HCl], the inhibition at 50 µM was < 5%.

In the case of `CN(C)CCCN1c2ccccc2Sc2ccc(Cl)cc21` [Chlorpromazine HCl], the inhibition at 50 µM is < 5%.

For `C[C@](N)(Cc1ccc(O)c(O)c1)C(=O)O` [Methyldopa], the inhibition at 50 µM was < 5%.

Take `COC(=O)Nc1nc2cc(C(=O)c3ccccc3)ccc2[nH]1` [Mebendazol]: the inhibition at 50 µM was < 5%.

Regarding `CCN(CC)CCCC(C)Nc1c2ccc(Cl)cc2nc2ccc(OC)cc12` (stereo not drawn) [Quinacrine 2HCl dihydrate], the inhibition at 50 µM was < 5%.

Regarding `Nc1ccn([C@@H]2O[C@H](CO)[C@@H](O)[C@@H]2O)c(=O)n1` [Cytarabine], the inhibition at 50 µM is < 5%.

For `CCN(CC)CC(=O)Nc1c(C)cccc1C` [Lidocaine], the inhibition at 50 µM is < 5%.

As to `C[C@H]1[C@H](C)CC[C@]2(C(=O)O)CC[C@]3(C)C(=CC[C@@H]4[C@@]5(C)C[C@@H](O)[C@H](O)[C@@](C)(CO)[C@@H]5CC[C@]43C)[C@H]12` [Asiatic acid], the inhibition at 50 µM is < 5%.

For `C#C[C@]1(O)CC[C@H]2[C@@H]3CCC4=CC(=O)CC[C@@H]4[C@H]3CC[C@@]21CC` [Levonorgestrel], the inhibition at 50 µM is < 5%.

Take `COc1cc(NS(=O)(=O)c2ccc(N)cc2)nc(OC)n1` [Sulfadimethoxine]: the inhibition at 50 µM was < 5%.

As to `Nc1ccn([C@H]2CC[C@@H](CO)O2)c(=O)n1` [2',3' - dideoxycytidine], the inhibition at 50 µM is < 5%.

For the compound `CN1[C@@H](CC(=O)c2ccccc2)CCC[C@H]1C[C@H](O)c1ccccc1` [Lobeline], the inhibition at 50 µM is < 5%.

Regarding `CCCc1nc(C(C)(C)O)c(C(=O)O)n1Cc1ccc(-c2ccccc2-c2nnn[nH]2)cc1` [Olmesartan], the inhibition at 50 µM is < 5%.

`Cc1oncc1C(=O)Nc1ccc(C(F)(F)F)cc1` [Leflunomide]: the inhibition at 50 µM is < 5%.

For the compound `CCCCCN(CCCCC)C(=O)C(CCC(=O)O)NC(=O)c1ccc(Cl)c(Cl)c1` (stereo not drawn) [Lorglumide], the inhibition at 50 µM was < 5%.

As for `CCCCC[C@H](O)/C=C/[C@H]1[C@H](O)CC(=O)[C@@H]1C/C=C\CCCC(=O)O` [Dinoprostone], the inhibition at 50 µM was found to be 6.5%.

In the case of `OCCOCCN1CCN(C2=Nc3ccccc3Sc3ccccc32)CC1` [Quetiapine fumarate], the inhibition at 50 µM was < 5%.

For the compound `Cc1cccc(C)c1NC1=NCCCS1` [Xylazine HCl], the inhibition at 50 µM is < 5%.

For `CN/C(=N\CCSCc1nc[nH]c1C)NC#N` [Cimetidine], the inhibition at 50 µM was < 5%.

With `c1ccc2c(c1)OCC(C1=NCCN1)O2` (stereo not drawn) [Idazoxan], the inhibition at 50 µM is < 5%.

On to `CC1=C(/C=C/C(C)=C/C=C/C(C)=C/C=C/C=C(C)/C=C/C=C(C)/C=C/C2=C(C)C(=O)CCC2(C)C)C(C)(C)CCC1=O` [Canthaxanthin], for which the inhibition at 50 µM is < 5%.

For `CN1CCC(=C2c3ccccc3C=Cc3ccccc32)CC1` [Cyproheptadine], the inhibition at 50 µM was < 5%.

Take `CCC(=O)O[C@]1(C(=O)CCl)[C@@H](C)C[C@H]2[C@@H]3CCC4=CC(=O)C=C[C@]4(C)[C@@]3(F)[C@@H](O)C[C@@]21C` [Clobetasol propionate]: the inhibition at 50 µM worked out at 42.3%.

Consider `CC(C)NCC(O)c1ccc2ccccc2c1` (stereo not drawn) [Pronethalol HCl], for which the inhibition at 50 µM is 8.3%.

Consider `CS(=O)(=O)CCNCc1ccc(-c2ccc3ncnc(Nc4ccc(OCc5cccc(F)c5)c(Cl)c4)c3c2)o1` [Lapatinib], for which the inhibition at 50 µM was < 5%.

Consider `Cn1c(=O)c2[nH]cnc2n(C)c1=O` [Aminophylline], for which the inhibition at 50 µM was < 5%.

On to `O=C1CC[C@@]2(O)[C@H]3Cc4ccc(O)c5c4[C@@]2(CCN3CC2CC2)[C@H]1O5` [Naltrexone HCl], for which the inhibition at 50 µM is < 5%.

Consider `C#C[C@]1(O)CC[C@H]2[C@@H]3CCC4=Cc5oncc5C[C@]4(C)[C@H]3CC[C@@]21C` [Danazol], for which the inhibition at 50 µM is < 5%.

`CN(C)CCCOc1nn(Cc2ccccc2)c2ccccc12` [Benzydamine]: the inhibition at 50 µM is < 5%.

Turning to `CC(C)[C@H]1CC[C@H](C(=O)N[C@H](Cc2ccccc2)C(=O)O)CC1` [nateglinide], the inhibition at 50 µM is < 5%.

Consider `C=C1C[C@H]2[C@@H]3C=C(C)C4=CC(=O)CC[C@]4(C)[C@H]3CC[C@]2(C)[C@@]1(OC(C)=O)C(C)=O` [Melengestrol acetate], for which the inhibition at 50 µM was < 5%.

In the case of `CSc1ccc2c(c1)N(CCC1CCCCN1C)c1ccccc1S2` (stereo not drawn) [Thioridazine HCl], the inhibition at 50 µM is < 5%.

In the case of `O=C(CCCN1CCC2(CC1)C(=O)NCN2c1ccccc1)c1ccc(F)cc1` [Spiperone], the inhibition at 50 µM was < 5%.

Consider `COC(=O)[C@]1(C)CC[C@]2(C)CC[C@]3(C)C4=CC=C5C(=CC(=O)C(O)=C5C)[C@]4(C)CC[C@@]3(C)[C@@H]2C1` [Pristimerin], for which the inhibition at 50 µM was determined as 39.1%.

Turning to `O=C(c1ccc(OCCN2CCCCC2)cc1)c1c(-c2ccc(O)cc2)sc2cc(O)ccc12` [Raloxifene HCl], the inhibition at 50 µM was < 5%.

Turning to `COc1cc2c(cc1OC)C(=O)C(CC1CCN(Cc3ccccc3)CC1)C2` (stereo not drawn) [Donepezil HCl], the inhibition at 50 µM is < 5%.

On to `CC(C)(C)C(=O)C(Oc1ccc(Cl)cc1)n1ccnc1` (stereo not drawn) [Climbazole], for which the inhibition at 50 µM is < 5%.

`CCCCc1ncc(/C=C(\Cc2cccs2)C(=O)O)n1Cc1ccc(C(=O)O)cc1` [Eprosartan]: the inhibition at 50 µM came out at 6.2%.

With `COCCOC(=O)C1=C(C)NC(C)=C(C(=O)OC/C=C/c2ccccc2)C1c1cccc([N+](=O)[O-])c1` (stereo not drawn) [Cilnidipine], the inhibition at 50 µM was < 5%.

In the case of `Nc1nc2ccc(OC(F)(F)F)cc2s1` [Riluzole HCl], the inhibition at 50 µM was < 5%.

Consider `O=c1[nH]c2ccccc2n1C1CCN(CCCC(c2ccc(F)cc2)c2ccc(F)cc2)CC1` [Pimozide], for which the inhibition at 50 µM is < 5%.

Turning to `CC1=C(/C=C/C(C)=C/C=C/C(C)=C/C(=O)O)C(C)(C)CCC1` [Retinoic acid], the inhibition at 50 µM is < 5%.

As to `Nc1nc(N)nc(-c2cc(Cl)ccc2Cl)n1` [Irsogladine maleate], the inhibition at 50 µM was < 5%.

In the case of `O=C(O)c1cc(-c2ccc(F)cc2F)ccc1O` [Diflunisal], the inhibition at 50 µM turned out to be 31.5%.

In the case of `CC(=O)S[C@@H]1CC2=CC(=O)CC[C@]2(C)[C@H]2CC[C@@]3(C)[C@@H](CC[C@@]34CCC(=O)O4)[C@H]12` [Spironolactone], the inhibition at 50 µM worked out at 36.4%.

In the case of `CN(C)C(=O)Oc1cccc([N+](C)(C)C)c1` [Neostigmine Br], the inhibition at 50 µM was < 5%.

As for `O=C(O)Cc1ccccc1Nc1c(Cl)cccc1Cl` [Diclofenac, Na], the inhibition at 50 µM is < 5%.

As for `CCOC(=O)[C@H](CCc1ccccc1)N[C@@H](C)C(=O)N1Cc2ccccc2C[C@H]1C(=O)O` [Quinapril HCl], the inhibition at 50 µM was < 5%.

Take `CC1(C)C[C@@H]1C(=O)N/C(=C\CCCCSC[C@H](N)C(=O)O)C(=O)O` [Cilastatin]: the inhibition at 50 µM was < 5%.

For `COC(=O)CCc1ccc(OCC(O)CNC(C)C)cc1` (stereo not drawn) [Esmolol], the inhibition at 50 µM was < 5%.

With `CC(C)NCC(O)c1ccc(N)c(C#N)c1` (stereo not drawn) [Cimaterol], the inhibition at 50 µM is < 5%.

Take `COc1ccccc1Oc1c(NS(=O)(=O)c2ccc(C(C)(C)C)cc2)nc(-c2ncccn2)nc1OCCO` [Bosentan]: the inhibition at 50 µM is < 5%.

As for `CCCOc1ccccc1-c1nc2[nH]nnc2c(=O)[nH]1` [Zaprinast], the inhibition at 50 µM was < 5%.

As to `CC(C)CC(N(C)C)C1(c2ccc(Cl)cc2)CCC1` (stereo not drawn) [Sibutramine HCl], the inhibition at 50 µM is < 5%.

As for `CO[C@@H]1[C@@H](OC(N)=O)[C@@H](O)[C@H](Oc2ccc3c(O)c(NC(=O)c4ccc(O)c(CC=C(C)C)c4)c(=O)oc3c2C)OC1(C)C` [Novobiocin Na], the inhibition at 50 µM was < 5%.

As to `CN(C)CCc1c[nH]c2ccc(C[C@H]3COC(=O)N3)cc12` [zolmitriptan], the inhibition at 50 µM was < 5%.

Turning to `Fc1ccc(C(c2ccc(F)cc2)N2CCN(C/C=C/c3ccccc3)CC2)cc1` [Flunarizine-2HCl], the inhibition at 50 µM was < 5%.

With `Clc1ccc2c(c1)C(N1CCNCC1)=Nc1ccccc1O2` [Amoxapine], the inhibition at 50 µM was 16.8%.

Turning to `Clc1ccc(Nc2nnc(Cc3ccncc3)c3ccccc23)cc1` [Vatalanib], the inhibition at 50 µM was < 5%.

As to `Cc1ccc(/C(=C\CN2CCCC2)c2ccccn2)cc1` [Trans-triprolidine HCl], the inhibition at 50 µM is < 5%.

`CS(=O)(=O)c1ccc([C@H](O)[C@@H](COC(=O)CN)NC(=O)C(Cl)Cl)cc1` [Thiamphenicol glycinate]: the inhibition at 50 µM is < 5%.

As to `CCC(=O)O[C@@H](O[P@](=O)(CCCCc1ccccc1)CC(=O)N1C[C@H](C2CCCCC2)C[C@H]1C(=O)O)C(C)C` [Fosinopril], the inhibition at 50 µM is < 5%.

The record behind these values is publication PMC5363571 (Oncotarget, 2016).
